± gives the standard deviation of the averaged measurements.
What was measured:
BLEOMYCIN = compound: Cc1c(N)nc([C@H](CC(N)=O)NC[C@H](N)C(N)=O)nc1C(=O)N[C@H](C(=O)N[C@H](C)[C@@H](O)[C@H](C)C(=O)N[C@H](C(=O)NCCc1nc(-c2nc(C(=O)NCCC[S+](C)C)cs2)cs1)[C@@H](C)O)[C@@H](OC1OC(CO)C(O)C(O)C1OC1OC(CO)C(O)C(OC(N)=O)C1O)c1cnc[nH]1 [BLEOMYCIN]; experiment: surviving fraction relative to DMSO-only wells; higher = less growth inhibition; conditions: exposure time: 5 days
Summary of the method: (§1)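 Inhibitors at 0.5, 1, 5, 10, 50, 100, 500 and 1000 nM were applied continuously for five days to tumour cell lines seeded in log phase at 250–500 cells per well in 384-well plates 24 hours earlier. Viability was measured by CellTiter-Glo luminescence and expressed as surviving fraction relative to the median of DMSO-only wells. Luminescence was taken after 10 minutes at room temperature.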

AFIMOXIFENE = compound: CC/C(=C(\c1ccc(O)cc1)c1ccc(OCCN(C)C)cc1)c1ccccc1 [AFIMOXIFENE]; experiment: as above; conditions: exposure time: 5 days
Summary of the method: as §1

Row | Test System | surviving fraction (BLEOMYCIN; 0.5 nM) | surviving fraction (BLEOMYCIN; 1 nM) | surviving fraction (BLEOMYCIN; 5 nM) | surviving fraction (BLEOMYCIN; 10 nM) | surviving fraction (BLEOMYCIN; 50 nM) | surviving fraction (BLEOMYCIN; 100 nM) | surviving fraction (BLEOMYCIN; 500 nM) | surviving fraction (BLEOMYCIN; 1000 nM) | surviving fraction (AFIMOXIFENE; 0.5 nM) | surviving fraction (AFIMOXIFENE; 1 nM) | surviving fraction (AFIMOXIFENE; 5 nM) | surviving fraction (AFIMOXIFENE; 10 nM) | surviving fraction (AFIMOXIFENE; 50 nM) | surviving fraction (AFIMOXIFENE; 100 nM) | surviving fraction (AFIMOXIFENE; 500 nM) | surviving fraction (AFIMOXIFENE; 1000 nM)
1 | HUO3N1 BONE | 0.898 ± 0.053 | 0.897 ± 0.0087 | 0.924 ± 0.016 | 0.908 ± 0.044 | 0.957 ± 0.031 | 0.892 ± 0.059 | 0.676 ± 0.0053 | 0.532 ± 0.025 | 1.06 ± 0.046 | 1.03 ± 0.038 | 1.1 ± 0.065 | 1.09 ± 0.029 | 1.12 ± 0.057 | 1.06 ± 0.043 | 0.932 ± 0.074 | 0.849 ± 0.033
2 | JIMT1 BREAST | 0.823 ± 0.056 | 0.82 ± 0.043 | 0.842 ± 0.019 | 0.874 ± 0.048 | 0.952 ± 0.059 | 0.927 ± 0.028 | 0.825 ± 0.058 | 0.698 ± 0.059 | 1.01 ± 0.045 | 0.972 ± 0.026 | 1 ± 0.032 | 0.994 ± 0.048 | 1.08 ± 0.065 | 1.05 ± 0.066 | 1.04 ± 0.08 | 0.939 ± 0.024
3 | JURKAT HAEMATOPOIETIC AND LYMPHOID TISSUE | 1.01 ± 0.02 | 1.02 ± 0.016 | 0.986 ± 0.016 | 0.977 ± 0.012 | 0.916 ± 0.017 | 0.786 ± 0.026 | 0.232 ± 0.0061 | 0.122 ± 0.0062 | 1.06 ± 0.023 | 1.03 ± 0.026 | 1.03 ± 0.021 | 1.04 ± 0.015 | 0.953 ± 0.024 | 0.935 ± 0.061 | 0.991 ± 0.011 | 1.03 ± 0.025
4 | KPD BONE | 0.862 ± 0.01 | 0.828 ± 0.062 | 0.875 ± 0.021 | 0.891 ± 0.034 | 0.767 ± 0.018 | 0.699 ± 0.018 | 0.495 ± 0.04 | 0.407 ± 0.014 | 1.03 ± 0.043 | 1.03 ± 0.022 | 1.14 ± 0.088 | 1.07 ± 0.043 | 1.132 ± 0.011 | 1.1 ± 0.04 | 0.976 ± 0.049 | 0.83 ± 0.035
5 | LM7 BONE | 0.745 ± 0.055 | 0.756 ± 0.039 | 0.834 ± 0.029 | 0.823 ± 0.091 | 0.91 ± 0.048 | 0.767 ± 0.05 | 0.402 ± 0.022 | 0.289 ± 0.044 | 1.02 ± 0.12 | 1.07 ± 0.039 | 1.06 ± 0.063 | 1.09 ± 0.075 | 1.15 ± 0.092 | 1.09 ± 0.039 | 1.03 ± 0.016 | 0.914 ± 0.058
6 | LNCAP PROSTATE | 1.18 ± 0.11 | 1.04 ± 0.038 | 1.14 ± 0.085 | 0.96 ± 0.15 | 1.03 ± 0.061 | 0.868 ± 0.076 | 0.847 ± 0.074 | 0.595 ± 0.072 | 1.08 ± 0.041 | 0.942 ± 0.1 | 1.04 ± 0.063 | 1 ± 0.098 | 1.06 ± 0.061 | 1.04 ± 0.087 | 1.02 ± 0.08 | 0.983 ± 0.088
7 | MCF7 BREAST | 0.816 ± 0.033 | 0.821 ± 0.015 | 0.819 ± 0.007 | 0.779 ± 0.05 | 0.829 ± 0.037 | 0.847 ± 0.028 | 0.787 ± 0.0039 | 0.7254 ± 0.0065 | 1.02 ± 0.045 | 0.976 ± 0.045 | 0.917 ± 0.036 | 0.928 ± 0.045 | 0.877 ± 0.035 | 0.857 ± 0.037 | 0.834 ± 0.046 | 0.775 ± 0.012
8 | MDAMB134 BREAST | 0.714 ± 0.15 | 0.771 ± 0.044 | 0.844 ± 0.011 | 0.724 ± 0.047 | 0.804 ± 0.04 | 0.862 ± 0.12 | 0.733 ± 0.091 | 0.753 ± 0.088 | 1.32 ± 0.15 | 1.06 ± 0.073 | 1.05 ± 0.011 | 0.975 ± 0.088 | 1.16 ± 0.074 | 0.932 ± 0.037 | 0.887 ± 0.095 | 0.908 ± 0.089
9 | MDAMB157 BREAST | 0.89 ± 0.033 | 0.915 ± 0.045 | 0.788 ± 0.033 | 0.863 ± 0.025 | 0.815 ± 0.047 | 0.736 ± 0.07 | 0.476 ± 0.016 | 0.288 ± 0.056 | 1.04 ± 0.05 | 1.01 ± 0.062 | 1.04 ± 0.14 | 1.02 ± 0.072 | 1.06 ± 0.022 | 1.01 ± 0.014 | 0.942 ± 0.059 | 0.989 ± 0.12
10 | MDAMB231 BREAST | 0.961 ± 0.017 | 0.958 ± 0.018 | 0.978 ± 0.014 | 0.935 ± 0.019 | 0.887 ± 0.028 | 0.845 ± 0.021 | 0.642 ± 0.029 | 0.504 ± 0.01 | 0.987 ± 0.017 | 1.01 ± 0.032 | 1.01 ± 0.045 | 1.01 ± 0.023 | 1.02 ± 0.024 | 1.02 ± 0.018 | 1.01 ± 0.024 | 0.955 ± 0.035
